Assay results from patent US4439436A, “1,3-Dioxolo(4,5-G)quinoline compounds” (Sterling Drug Inc., priority 1982, dated 1984).
Converted amounts (≈) assume the structure as drawn. Like-named read-outs stand apart in the source and are kept apart here.

Tests used:
Proteus vulgaris 9920 = test: in vitro antibacterial activity, serial dilution (MIC); assay type: cell-based
Description: (§1) The in vitro antibacterial activity was determined by conventional serial dilution procedures. Bacterial cultures were grown in tryptose phosphate broth or brain heart infusion broth (containing heat-inactivated normal horse serum for tests with S. pyogenes) overnight at 37° C. and subsequently diluted in double strength broth to provide bacterial inocula of about 2×10^5 cells/ml. Aqueous solutions of the compounds of the invention were prepared by dissolving the free acid form in 0.5 N sodium hydroxide. The solutions were diluted with sterile distilled water to 100 mcg/ml of compound in terms of the free acid. Serial two-fold dilutions of the compound stock solutions were prepared in water and 0.5 ml of each dilution was transferred to sets of tubes, one set for each bacterial inoculum. Each tube was then inoculated with 0.5 ml of the appropriate culture, resulting in a final bacterial concentration of about 1×10^5 cells/ml. The minimal inhibitory concentration (MIC), defined as the lowest concentration of the test compound to inhibit visible bacterial growth, was recorded after 18-20 hours of static incubation at 37° C.

Escherichia coli Vogel [1] = test: as above; assay type: cell-based
Description: as §1

Proteus mirabilis MGH-1 = test: as above; assay type: cell-based; conditions: MGH1
Description: as §1

Escherichia coli Vogel [2] = test: in vivo antibacterial activity in mice infected with E. coli; parameters: species or system female mice; conditions: sc, 168 h
Description: (§2) The in vivo antibacterial activity of the compounds of the invention was determined in female mice, 18-20 grams each, by the following procedure:
(§3) Aqueous solutions of the compounds to be tested were prepared by dissolving the free acid form in dilute sodium hydroxide and diluting the solution with distilled water to the desired volume.
(§4) Cultures of Escherichia coli Vogel prepared in brain heart infusion broth, cultures of Klebsiella pneumoniae 39645 grown in tryptose phosphate broth with 5% rabbit serum diluted in the same broth were used to infect the mice as follows:
E coli: mice were inoculated intraperitoneally with 0.5 ml of the bacterial test inoculum (1.87×10^7 and 5×10^6 cells/ml respectively).
Mice infected with E. coli were medicated once (0.5 ml) one-half hour post infection, the test compound being administered by the subcutaneous (s.c.) route. Deaths were recorded daily for seven days.
(§5) Groups of ten animals each for four or five dose levels were thus treated and the number of survivors in each group recorded. The fifty percent protective dose values (PD50) were then calculated.

[3] = test system: Klebsiella pneumoniae 39645; test: in vitro antibacterial activity, serial dilution (MIC); assay type: cell-based
Description: as §1

[4] = test system: Klebsiella pneumoniae 39645; test: in vivo antibacterial activity in mice infected with K. pneumoniae; parameters: species or system female mice; conditions: Klebsiella pneumoniae, 39645, sc, 336 h; K. pneumoniae intramuscularly; s.c. 17 h and 1 h preinfection, 6 h postinfection, twice a day next three days; fourteen days; read-out: Protective Dose (PD50)
Description: as §2, §3, §4
K. pneumoniae: mice were inoculated intramuscularly in the right hind leg with 0.2 ml of the bacterial test inoculum (2.05×10^4 cells/ml).
Mice infected with K. pneumoniae were medicated at the following times: seventeen hours and one hour preinfection, six hours postinfection and twice a day for the next three days. The test compound was administered by the subcutaneous (0.2 ml) route. Deaths were recorded daily for fourteen days.
as §5

[5] = test system: Streptococcus pyogenes C203; test: in vitro antibacterial activity, serial dilution (MIC); assay type: cell-based; conditions: broth with heat-inactivated normal horse serum, 18-20 hours, 37° C., read-out: Minimal Inhibitory Concentration
Description: as §1

[6] = test system: Staphylococcus aureus Smith; test: as above; assay type: cell-based; conditions: 18-20 hours, 37° C., about 1×10^5 cells/ml, read-out: Minimal Inhibitory Concentration
Description: as §1

[7] = test system: Pseudomonas aeruginosa MGH-2; test: as above; assay type: cell-based; conditions: MGH2, 18-20 hours, 37° C., about 1×10^5 cells/ml, read-out: Minimal Inhibitory Concentration
Description: as §1

[8] = Proteus vulgaris, 9920, P. vulg., in vitro, read-out: MIC
[9] = Escherichia coli, E. coli, in vitro, read-out: MIC
[10] = Proteus mirabilis, P. mirab., in vitro, read-out: MIC
[11] = E. coli intraperitoneally, single s.c. dose one-half hour post infection, seven days, read-out: Protective Dose (PD50)
[12] = Klebsiella pneumoniae 39645, 18-20 hours, 37° C., about 1×10^5 cells/ml, read-out: Minimal Inhibitory Concentration
[13] = Proteus vulgaris 9920, 18-20 hours, 37° C., about 1×10^5 cells/ml, read-out: Minimal Inhibitory Concentration
[14] = Escherichia coli Vogel, 18-20 hours, 37° C., about 1×10^5 cells/ml, read-out: Minimal Inhibitory Concentration
[15] = Proteus mirabilis MGH-1, 18-20 hours, 37° C., about 1×10^5 cells/ml, read-out: Minimal Inhibitory Concentration

Compound	MIC (Proteus vulgaris 9920; [8]) [µg/mL]	MIC (Escherichia coli Vogel [1]; [9]) [µg/mL]	MIC (Proteus mirabilis MGH-1; [10]) [µg/mL]	ED50 (Escherichia coli Vogel [2]; in vivo against E. coli, read-out: PD50) [mg/kg]	MIC ([3]; Klebsiella pneumoniae, 39645, K. pneum., in vitro, read-out: MIC) [µg/mL]	ED50 [4] [mg/kg]	ED50 (Escherichia coli Vogel [2]; [11]) [mg/kg]	MIC [5] [µg/mL]	MIC [3, 12] [µg/mL]	MIC (Proteus vulgaris 9920; [13]) [µg/mL]	MIC (Escherichia coli Vogel [1]; [14]) [µg/mL]	MIC (Proteus mirabilis MGH-1; [15]) [µg/mL]	MIC [6] [µg/mL]	MIC [7] [µg/mL]
Nn1cc(C(=O)O)c(=O)c2cc3c(cc21)OCO3 [Example 2, 5-Amino-5,8-dihydro-8-oxo-1,3-dioxolo[4,5-g]quinoline-7-carboxylic acid]	3.9 (≈ 15.7 µM)	7.8 (≈ 31.4 µM)	3.9 (≈ 15.7 µM)											
CN(C=O)n1cc(C(=O)O)c(=O)c2cc3c(cc21)OCO3 [Example 7, 5-[(Formyl)methylamino]5,8-dihydro-8-oxo-1,3-dioxolo[4,5-g]-quinoline-7-carboxylic acid]	15.6 (≈ 53.8 µM)	31.3 (≈ 108 µM)	7.8 (≈ 26.9 µM)	40	15.6 (≈ 53.8 µM)									
CNn1cc(C(=O)O)c(=O)c2cc3c(cc21)OCO3 [Example 9, 5,8-Dihydro-5-(methylamino)-8-oxo-1,3-dioxolo[4,5-g]quinoline-7-carboxylic acid]						28	3.3	> 500	1 (≈ 3.81 µM)	0.125 (≈ 0.477 µM)	0.25 (≈ 0.953 µM)	0.25 (≈ 0.953 µM)	3.9 (≈ 14.9 µM)	15.6 (≈ 59.5 µM)
CCNn1cc(C(=O)O)c(=O)c2cc3c(cc21)OCO3 [Example 12, 5-(Ethylamino)-5,8-dihydro-8-oxo-1,3-dioxolo[4,5-g]quinoline-7-carboxylic acid]						50	7	> 62.5	1.95 (≈ 7.06 µM)	0.25 (≈ 0.905 µM)	1 (≈ 3.62 µM)	1.95 (≈ 7.06 µM)	> 15.6	> 62.5
CCCNn1cc(C(=O)O)c(=O)c2cc3c(cc21)OCO3 [Example 14, 5,8-Dihydro-8-oxo-5-(propylamino)-1,3-dioxolo[4,5-g]quinoline-7-carboxylic acid]						> 200	141	> 62.5	> 7.8	3.9 (≈ 13.4 µM)	> 7.8	> 7.8	> 62.5	> 62.5
